Assay: Phenomenex Kinetex XB-C18, 100 × 2.1 mm, 1.7 µm, 35 °C, 0.3 mL/min, estimated dead time 0.73 min; A: water + 0.1% formic acid; B: acetonitrile + 0.1% formic acid; gradient (min/%B) 0/5 1/5 2/10 9/33 15/46 16/70 21/90 22/90
Conditions: stereoisomer not certain

SMILES	LC retention time
CC(C)=CCCC(C)(OC1OC(CO)C(O)C(O)C1O)C1CCC2(C)C1C(O)CC1C3(C)CCC(OC4OC(CO)C(O)C(O)C4OC4OC(COC(=O)CC(=O)O)C(O)C(O)C4O)C(C)(C)C3CCC12C (configuration not stated)	12.7 min
CC(C)=CCCC(C)(OC1OC(COC2OC(COC3OCC(O)C(O)C3O)C(O)C(O)C2O)C(O)C(O)C1O)C1CCC2(C)C1C(O)CC1C3(C)CCC(OC4OC(CO)C(O)C(O)C4OC4OC(CO)C(O)C(O)C4O)C(C)(C)C3CCC12C (configuration not stated)	10.2 min
CC(C)=CCCC(C)(OC1OC(COC2OC(CO)C(O)C(OC3OCC(O)C(O)C3O)C2O)C(O)C(O)C1O)C1CCC2(C)C1C(O)CC1C3(C)CCC(OC4OC(CO)C(O)C(O)C4OC4OC(CO)C(O)C(O)C4O)C(C)(C)C3CCC12C (configuration not stated)	10.5 min
O=c1c(O)c(-c2ccc(O)c(O)c2)oc2cc(OC3OC(CO)C(O)C(O)C3O)cc(O)c12 (configuration not stated)	6.12 min
CC(C)=CCCC(C)(O)C1CCC2(C)C1C(O)CC1C3(C)CCC(O)C(C)(C)C3C(OC3OC(CO)C(O)C(O)C3OC3OC(C)C(O)C(O)C3O)CC12C (configuration not stated)	10.9 min
CC(C)=CCCC(C)(OC1OC(COC2OC(CO)C(O)C(O)C2O)C(O)C(O)C1O)C1CCC2(C)C1C(O)CC1C3(C)CCC(OC4OC(CO)C(O)C(O)C4OC4OC(CO)C(O)C(O)C4O)C(C)(C)C3CCC12C (configuration not stated)	10.9 min
CC(C)=CCCC(C)(OC1OC(COC2OCC(O)C(O)C2O)C(O)C(O)C1O)C1CCC2(C)C1C(O)CC1C3(C)CCC(OC4OC(CO)C(O)C(O)C4OC4OC(CO)C(O)C(O)C4O)C(C)(C)C3CCC12C (configuration not stated)	11.6 min
CC1OC(OCC2OC(Oc3c(-c4ccc(O)c(O)c4)oc4cc(O)cc(O)c4c3=O)C(O)C(O)C2O)C(O)C(O)C1O (configuration not stated)	5.99 min
CC(C)=CCCC(C)(OC1OC(CO)C(O)C(O)C1O)C1CCC2(C)C1C(O)CC1C3(C)CCC(O)C(C)(C)C3C(OC3OC(COC4OC(CO)C(O)C(O)C4O)C(O)C(O)C3O)CC12C (configuration not stated)	7.28 min
CC(C)=CCCC(C)(OC1OC(CO)C(O)C(O)C1O)C1CCC2(C)C1C(O)CC1C3(C)CCC(OC4OC(CO)C(O)C(O)C4O)C(C)(C)C3CCC12C (configuration not stated)	15.4 min
CC(C)=CCCC(C)(OC1OC(CO)C(O)C(O)C1O)C1CCC2(C)C1C(O)CC1C3(C)CCC(OC4OC(COC5OC(CO)C(O)C(O)C5O)C(O)C(O)C4O)C(C)(C)C3CCC12C (configuration not stated)	13.2 min
CCCC=C1OC(=O)C2=C1CCC=C2	16.4 min
CC(C)=CCCC(C)(OC1OC(CO)C(O)C(O)C1O)C1CCC2(C)C1C(O)CC1C3(C)CCC(O)C(C)(C)C3C(OC3OC(CO)C(O)C(O)C3OC3OCC(O)C(O)C3O)CC12C (configuration not stated)	7.68 min
CC(C)=CCCC(C)(O)C1CCC2(C)C1C(O)CC1C3(C)CCC(O)C(C)(C)C3C(OC3OC(CO)C(O)C(O)C3OC3OC(CO)C(O)C(O)C3O)CC12C (configuration not stated)	10.1 min
O=c1cc(-c2ccc(O)c(O)c2)oc2cc(OC3OC(CO)C(O)C(O)C3O)cc(O)c12 (configuration not stated)	6.28 min
CC(C)=CCCC(C)(O)C1CCC2(C)C1C(O)CC1C3(C)CCC(O)C(C)(C)C3C(O)CC12C (configuration not stated)	16.6 min
CC(C)=CCCC(C)(OC1OC(COC2OC(CO)C(O)C(OC3OCC(O)C(O)C3O)C2O)C(O)C(O)C1O)C1CCC2(C)C1C(O)CC1C3(C)CCC(OC4OC(CO)C(O)C(O)C4OC4OC(CO)C(O)C(O)C4OC4OCC(O)C(O)C4O)C(C)(C)C3CCC12C (configuration not stated)	9.85 min
CC(C)=CCCC(C)(OC1OC(CO)C(O)C(O)C1O)C1CCC2(C)C1C(O)CC1C3(C)CCC(OC4OC(CO)C(O)C(O)C4OC4OC(CO)C(O)C(O)C4O)C(C)(C)C3CCC12C (configuration not stated)	12.4 min
COc1cc(C=CC(=O)O)ccc1O	5.97 min
CCCC=C1OC(=O)C2=C1CCC1C3C=C4C(=O)OC(=CCCC)C4(CC3)C21 (configuration not stated)	18.2 min
O=C1C(=C(O)C=Cc2ccc(O)cc2)C(O)=C(C2OC(CO)C(O)C(O)C2O)C(=O)C1(O)C1OC(CO)C(O)C(O)C1O (configuration not stated)	4.17 min
C=C(CCC=C(C)C)C1CCC2(C)C1C(O)CC1C3(C)CCC(O)C(C)(C)C3C(OC3OC(CO)C(O)C(O)C3OC3OCC(O)C(O)C3O)CC12C (configuration not stated)	14 min
CC(C)=CCCC(C)(OC1OC(COC2OC(CO)C(O)C(O)C2O)C(O)C(O)C1O)C1CCC2(C)C1C(O)CC1C3(C)CCC(OC4OC(CO)C(O)C(O)C4OC4OC(COC(=O)CC(=O)O)C(O)C(O)C4O)C(C)(C)C3CCC12C (configuration not stated)	11.1 min
O=c1cc(-c2ccc(O)c(O)c2)oc2cc(O)cc(O)c12	8.91 min
O=c1c(O)c(-c2ccc(O)c(O)c2)oc2cc(O)cc(O)c12	8.93 min
O=C(C=Cc1ccc(O)cc1)C1=C(O)C2=C(OC(C(O)C(O)C(O)CO)C2C2=C(O)C(=C(O)C=Cc3ccc(O)cc3)C(=O)C(O)(C3OC(CO)C(O)C(O)C3O)C2=O)C(O)(C2OC(CO)C(O)C(O)C2O)C1=O (configuration not stated)	6.67 min
CC(C)=CCCC(C)(OC1OC(CO)C(O)C(O)C1O)C1CCC2(C)C1C(O)CC1C3(C)CCC(O)C(C)(C)C3C(OC3OC(CO)C(O)C(O)C3O)CC12C (configuration not stated)	8.07 min
CC(C)=CCCC(C)(OC1OC(COC2OC(CO)C(O)C(O)C2O)C(O)C(O)C1O)C1CCC2(C)C1C(O)CC1C3(C)CCC(O)C(C)(C)C3C(OC3OC(CO)C(O)C(O)C3O)CC12C (configuration not stated)	7.09 min
O=c1c(O)c(-c2ccc(O)cc2)oc2cc(O)cc(O)c12	10.3 min

The remaining lines, values ahead:

LC retention time	SMILES
7.5 min	CC(C)=CCCC(C)(OC1OC(CO)C(O)C(O)C1O)C1CC(C)C2(C)C3CC(OC4OC(CO)C(O)C(O)C4OC4OC(CO)C(O)C(O)C4O)C4C(C)(C)C(O)CCC4(C)C3CC(O)C12 (configuration not stated)
3.9 min	COc1cc(C=CCO)cc(OC)c1OC1OC(CO)C(O)C(O)C1O (configuration not stated)
6.86 min	O=c1c(OC2OC(CO)C(O)C(O)C2O)c(-c2ccc(O)cc2)oc2cc(O)cc(O)c12 (configuration not stated)
14.9 min	C=C(CCC=C(C)C)C1CCC2(C)C1C(O)CC1C3(C)CCC(O)C(C)(C)C3C(OC3OC(CO)C(O)C(O)C3O)CC12C (configuration not stated)
17.3 min	CC(C)=CCCC(C)(OC1OC(CO)C(O)C(O)C1O)C1CCC2(C)C1C(O)CC1C3(C)CCC(O)C(C)(C)C3CCC12C (configuration not stated)
11.3 min	CC1(C)CCC2(C(=O)OC3OC(CO)C(O)C(O)C3O)CCC3(C)C(=CCC4C5(C)CCC(OC6OC(C(=O)O)C(O)C(O)C6OC6OC(CO)C(O)C(O)C6O)C(C)(C)C5CCC43C)C2C1 (configuration not stated)
8.82 min	CC(C)=CCCC(C)(OC1OC(CO)C(O)C(O)C1O)C1CCC2(C)C1C(O)CC1C3(C)CCC(OC4OC(CO)C(O)C(O)C4OC4OC(CO)C(O)C(O)C4O)C(C)(C)C3=CC(O)C12C (configuration not stated)
9.5 min	CC(C)=CCCC(C)(OC1OC(CO)C(O)C(O)C1O)C1CCC2(C)C1C(O)CC1C3(C)CCC(OC4OC(CO)C(O)C(O)C4OC4OC(CO)C(O)C(O)C4O)C(C)(C)C3C(O)CC12C (configuration not stated)
11.2 min	CC(C)=CCCC(C)(OC1OC(COC2OC(CO)C(O)C2O)C(O)C(O)C1O)C1CCC2(C)C1C(O)CC1C3(C)CCC(OC4OC(CO)C(O)C(O)C4OC4OC(CO)C(O)C(O)C4O)C(C)(C)C3CCC12C (configuration not stated)
6.76 min	O=C(C=Cc1ccc(O)cc1)C1=C(O)C2=C(OC3(C2)OCC(O)C(O)C3O)C(O)(C2OC(CO)C(O)C(O)C2O)C1=O (configuration not stated)
7.95 min	O=C(O)CC(C1=C(O)C(=C(O)C=Cc2ccc(O)cc2)C(=O)C(O)(C2OC(CO)C(O)C(O)C2O)C1=O)c1ccc(O)cc1 (configuration not stated)
6.6 min	CC1OC(OCC2OC(Oc3c(-c4ccc(O)cc4)oc4cc(O)cc(O)c4c3=O)C(O)C(O)C2O)C(O)C(O)C1O (configuration not stated)
6.92 min	O=C(C=Cc1ccc(O)c(O)c1)OC1CC(O)(C(=O)O)CC(OC(=O)C=Cc2ccc(O)c(O)c2)C1O (configuration not stated)
